Assay results published in PubChem BioAssay (NCI).
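Exposure lasted 48 hours, with cells grown in 96-well plates and compounds tested at five concentrations. The concentration for full growth arrest is given as TGI.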

Assays:
Assay in all cases: NCI anticancer screen, dose series, 48 h
HOP-62 NSCLC = test system: HOP-62 NSCLC
OVCAR-4 ovarian = test system: OVCAR-4 ovarian
K-562 leukemia = test system: K-562 leukemia
MALME-3M melanoma = test system: MALME-3M melanoma
MOLT-4 leukemia = test system: MOLT-4 leukemia
U251 CNS = test system: U251 CNS
KM20L2 colon = test system: KM20L2 colon
A498 renal = test system: A498 renal
HL-60(TB) leukemia = test system: HL-60(TB) leukemia
ACHN renal = test system: ACHN renal
NCI-H460 lung = test system: NCI-H460 lung
SK-OV-3 ovarian = test system: SK-OV-3 ovarian
COLO 205 colon = test system: COLO 205 colon
CCRF-CEM leukemia = test system: CCRF-CEM leukemia
SNB-19 CNS = test system: SNB-19 CNS
IGROV1 ovarian = test system: IGROV1 ovarian
TK-10 renal = test system: TK-10 renal
RXF-631 renal = test system: RXF-631 renal
OVCAR-8 ovarian = test system: OVCAR-8 ovarian
786-0 renal = test system: 786-0 renal
SN12C renal = test system: SN12C renal
M19-MEL melanoma = test system: M19-MEL melanoma
HCC-2998 colon = test system: HCC-2998 colon
NCI-H522 lung = test system: NCI-H522 lung
SK-MEL-2 melanoma = test system: SK-MEL-2 melanoma
DMS 114 small cell lung = test system: DMS 114 small cell lung
UACC-62 melanoma = test system: UACC-62 melanoma
EKVX NSCLC = test system: EKVX NSCLC
HOP-92 NSCLC = test system: HOP-92 NSCLC
XF 498 CNS = test system: XF 498 CNS
HCT-15 colon = test system: HCT-15 colon
A549 NSCLC = test system: A549 NSCLC
DMS 273 small cell lung = test system: DMS 273 small cell lung
SK-MEL-5 melanoma = test system: SK-MEL-5 melanoma
SNB-75 CNS = test system: SNB-75 CNS
HOP-18 NSCLC = test system: HOP-18 NSCLC
M14 melanoma = test system: M14 melanoma
RXF 393 renal = test system: RXF 393 renal
SW-620 colon = test system: SW-620 colon
UO-31 renal = test system: UO-31 renal
NCI-H226 lung = test system: NCI-H226 lung
NCI-H23 lung = test system: NCI-H23 lung
SF-539 CNS = test system: SF-539 CNS
HCT-116 colon = test system: HCT-116 colon
LOX IMVI melanoma = test system: LOX IMVI melanoma
SK-MEL-28 melanoma = test system: SK-MEL-28 melanoma
SF-268 CNS = test system: SF-268 CNS
RPMI-8226 leukemia = test system: RPMI-8226 leukemia
DU-145 prostate = test system: DU-145 prostate
UACC-257 melanoma = test system: UACC-257 melanoma
HS 578T breast = test system: HS 578T breast
OVCAR-5 ovarian = test system: OVCAR-5 ovarian
PC-3 prostate = test system: PC-3 prostate
SF-295 CNS = test system: SF-295 CNS
KM12 colon = test system: KM12 colon
MDA-N = test system: MDA-N
SNB-78 CNS = test system: SNB-78 CNS
MDA-MB-435 = test system: MDA-MB-435
CAKI-1 renal = test system: CAKI-1 renal
MCF7 breast = test system: MCF7 breast
BT-549 breast = test system: BT-549 breast
SR leukemia = test system: SR leukemia
NCI/ADR-RES ovarian = test system: NCI/ADR-RES ovarian
LXFL 529 NSCLC = test system: LXFL 529 NSCLC
DLD-1 colon = test system: DLD-1 colon
OVCAR-3 ovarian = test system: OVCAR-3 ovarian
HT29 colon = test system: HT29 colon

For `N#CNCC(COCc1ccccc1)c1ccccc1` (configuration not stated), the TGI (HOP-62 NSCLC) was > 100 µM, the TGI (OVCAR-4 ovarian) was > 100 µM and the TGI (K-562 leukemia) was > 100 µM. The TGI (MALME-3M melanoma) was > 100 µM, the TGI (MOLT-4 leukemia) was > 100 µM and the TGI (U251 CNS) was > 100 µM. The TGI (KM20L2 colon) was > 100 µM, the TGI (A498 renal) was > 100 µM and the TGI (HL-60(TB) leukemia) was > 100 µM. The TGI (ACHN renal) was > 100 µM, the TGI (NCI-H460 lung) was > 100 µM and the TGI (SK-OV-3 ovarian) was > 100 µM. For the same compound, the TGI (COLO 205 colon) was > 100 µM, the TGI (CCRF-CEM leukemia) was > 100 µM and the TGI (SNB-19 CNS) was > 100 µM. The TGI (IGROV1 ovarian) was > 100 µM, the TGI (TK-10 renal) was > 100 µM and the TGI (RXF-631 renal) was > 100 µM. The TGI (OVCAR-8 ovarian) was > 100 µM, the TGI (786-0 renal) was > 100 µM and the TGI (SN12C renal) was > 100 µM. For the same compound, the TGI (M19-MEL melanoma) was > 100 µM, the TGI (HCC-2998 colon) was > 100 µM and the TGI (NCI-H522 lung) was > 100 µM. For the same compound, the TGI (SK-MEL-2 melanoma) was > 100 µM, the TGI (DMS 114 small cell lung) was > 100 µM and the TGI (UACC-62 melanoma) was > 100 µM. The TGI (EKVX NSCLC) was > 100 µM, the TGI (HOP-92 NSCLC) was > 100 µM and the TGI (XF 498 CNS) was > 100 µM. For the same compound, the TGI (HCT-15 colon) was > 100 µM, the TGI (A549 NSCLC) was > 100 µM and the TGI (DMS 273 small cell lung) was > 100 µM. For the same compound, the TGI (SK-MEL-5 melanoma) was > 100 µM, the TGI (SNB-75 CNS) was > 100 µM and the TGI (HOP-18 NSCLC) was > 100 µM. For the same compound, the TGI (M14 melanoma) was > 100 µM, the TGI (RXF 393 renal) was > 100 µM and the TGI (SW-620 colon) was > 100 µM. The TGI (UO-31 renal) was > 100 µM, the TGI (NCI-H226 lung) was > 100 µM and the TGI (NCI-H23 lung) was > 100 µM. The TGI (SF-539 CNS) was > 100 µM, the TGI (HCT-116 colon) was > 100 µM and the TGI (LOX IMVI melanoma) was > 100 µM. For the same compound, the TGI (SK-MEL-28 melanoma) was > 100 µM, the TGI (SF-268 CNS) was > 100 µM and the TGI (RPMI-8226 leukemia) was > 100 µM.
For `COc1ccc(/C=C2\CCC(CN3CCOCC3)C2=O)cc1` (configuration not stated), the TGI (DU-145 prostate) was 4.02 µM, the TGI (HOP-62 NSCLC) was 33.3 µM and the TGI (UACC-257 melanoma) was 5.94 µM. The TGI (OVCAR-4 ovarian) was 24.1 µM, the TGI (K-562 leukemia) was 6.02 µM and the TGI (MALME-3M melanoma) was 6.42 µM. The TGI (MOLT-4 leukemia) was 6.29 µM, the TGI (U251 CNS) was 31.2 µM and the TGI (KM20L2 colon) was 13.5 µM. For the same compound, the TGI (A498 renal) was 21.4 µM, the TGI (HL-60(TB) leukemia) was 11.2 µM and the TGI (HS 578T breast) was > 100 µM. For the same compound, the TGI (ACHN renal) was 11.7 µM, the TGI (NCI-H460 lung) was 41.3 µM and the TGI (OVCAR-5 ovarian) was 19.5 µM. The TGI (SK-OV-3 ovarian) was 30 µM, the TGI (COLO 205 colon) was 5.38 µM and the TGI (PC-3 prostate) was 11.7 µM. For the same compound, the TGI (SF-295 CNS) was 32.1 µM, the TGI (KM12 colon) was 16.2 µM and the TGI (CCRF-CEM leukemia) was > 21.3 µM. For the same compound, the TGI (SNB-19 CNS) was 26 µM, the TGI (IGROV1 ovarian) was 11.3 µM and the TGI (TK-10 renal) was 9.64 µM. The TGI (RXF-631 renal) was 43.5 µM, the TGI (OVCAR-8 ovarian) was 7.35 µM and the TGI (786-0 renal) was 3.11 µM. It also gave a TGI (SN12C renal) of 12.3 µM, a TGI (M19-MEL melanoma) of 30.5 µM and a TGI (MDA-N) of 5.83 µM. The TGI (SNB-78 CNS) was 27 µM, the TGI (MDA-MB-435) was 3.97 µM and the TGI (HCC-2998 colon) was 10.9 µM. The TGI (CAKI-1 renal) was 4.15 µM, the TGI (NCI-H522 lung) was 2.39 µM and the TGI (SK-MEL-2 melanoma) was 9.66 µM. For the same compound, the TGI (DMS 114 small cell lung) was 7.09 µM, the TGI (MCF7 breast) was 9.58 µM and the TGI (UACC-62 melanoma) was 24.5 µM. It also gave a TGI (EKVX NSCLC) of 21.1 µM, a TGI (HOP-92 NSCLC) of 6.65 µM and a TGI (XF 498 CNS) of 9.69 µM. It also gave a TGI (HCT-15 colon) of 6.2 µM, a TGI (BT-549 breast) of 5.54 µM and a TGI (A549 NSCLC) of 20.8 µM. For the same compound, the TGI (SK-MEL-5 melanoma) was 12.7 µM, the TGI (SNB-75 CNS) was 30.5 µM and the TGI (HOP-18 NSCLC) was 18.3 µM. It also gave a TGI (SR leukemia) of 5.97 µM, a TGI (M14 melanoma) of 5.26 µM and a TGI (NCI/ADR-RES ovarian) of 5.23 µM. For the same compound, the TGI (RXF 393 renal) was 3.12 µM, the TGI (SW-620 colon) was 3.86 µM and the TGI (UO-31 renal) was 15.3 µM. It also gave a TGI (NCI-H226 lung) of 35.5 µM, a TGI (NCI-H23 lung) of 14.4 µM and a TGI (SF-539 CNS) of 13 µM. It also gave a TGI (LOX IMVI melanoma) of 10.1 µM, a TGI (LXFL 529 NSCLC) of 3.04 µM and a TGI (SK-MEL-28 melanoma) of 7.71 µM. The TGI (DLD-1 colon) was 24.8 µM, the TGI (SF-268 CNS) was 16.4 µM and the TGI (RPMI-8226 leukemia) was 3.57 µM. For the same compound, the TGI (OVCAR-3 ovarian) was 9.36 µM and the TGI (HT29 colon) was 5.73 µM.
With `CN1CCCC2[C@@H]3CCC4=C(O)C(=O)CC[C@]4(C)C3CC[C@@]21C` (some centres not stated) the TGI (HOP-62 NSCLC) was > 100 µM, the TGI (UACC-257 melanoma) was > 100 µM and the TGI (OVCAR-4 ovarian) was > 100 µM. The TGI (K-562 leukemia) was > 100 µM, the TGI (MALME-3M melanoma) was > 100 µM and the TGI (MOLT-4 leukemia) was > 100 µM. For the same compound, the TGI (U251 CNS) was > 100 µM, the TGI (KM20L2 colon) was > 100 µM and the TGI (A498 renal) was > 100 µM. For the same compound, the TGI (HL-60(TB) leukemia) was > 100 µM, the TGI (ACHN renal) was > 100 µM and the TGI (NCI-H460 lung) was > 100 µM. The TGI (OVCAR-5 ovarian) was > 100 µM, the TGI (SK-OV-3 ovarian) was > 100 µM and the TGI (COLO 205 colon) was > 100 µM. For the same compound, the TGI (SF-295 CNS) was > 100 µM, the TGI (KM12 colon) was > 100 µM and the TGI (CCRF-CEM leukemia) was > 100 µM. For the same compound, the TGI (SNB-19 CNS) was > 100 µM, the TGI (IGROV1 ovarian) was > 100 µM and the TGI (TK-10 renal) was > 100 µM. The TGI (RXF-631 renal) was > 100 µM, the TGI (OVCAR-8 ovarian) was > 100 µM and the TGI (786-0 renal) was > 100 µM. For the same compound, the TGI (SN12C renal) was > 100 µM, the TGI (CAKI-1 renal) was > 100 µM and the TGI (NCI-H522 lung) was > 100 µM. The TGI (SK-MEL-2 melanoma) was > 100 µM, the TGI (DMS 114 small cell lung) was > 100 µM and the TGI (UACC-62 melanoma) was > 100 µM. For the same compound, the TGI (EKVX NSCLC) was > 100 µM, the TGI (HOP-92 NSCLC) was > 100 µM and the TGI (XF 498 CNS) was > 100 µM. For the same compound, the TGI (HCT-15 colon) was > 100 µM, the TGI (A549 NSCLC) was > 100 µM and the TGI (DMS 273 small cell lung) was > 100 µM. The TGI (SK-MEL-5 melanoma) was > 100 µM, the TGI (SNB-75 CNS) was > 100 µM and the TGI (HOP-18 NSCLC) was > 100 µM. For the same compound, the TGI (M14 melanoma) was > 100 µM, the TGI (RXF 393 renal) was > 100 µM and the TGI (SW-620 colon) was > 100 µM. The TGI (UO-31 renal) was > 100 µM, the TGI (NCI-H226 lung) was > 100 µM and the TGI (NCI-H23 lung) was > 100 µM. The TGI (SF-539 CNS) was > 100 µM, the TGI (HCT-116 colon) was > 100 µM and the TGI (LOX IMVI melanoma) was > 100 µM. The TGI (LXFL 529 NSCLC) was > 100 µM, the TGI (SK-MEL-28 melanoma) was > 100 µM and the TGI (SF-268 CNS) was > 100 µM. The TGI (RPMI-8226 leukemia) was > 100 µM, the TGI (OVCAR-3 ovarian) was > 100 µM and the TGI (HT29 colon) was > 100 µM.
